Laboratory results taken from BindingDB's records for doi:10.1021/jm050855s (Glaxosmithkline, 2006).

experiment: Inhibition of HCV RNA replication in Huh7 cells

Question: With `CC(C)CCn1c(=O)c(C2=Nc3ccccc3S(=O)(=O)N2)c(O)c2ccccc21` as the compound, how does the EC50 read?
Answer: The EC50 was 417 nM.

Question: For `O=c1c(C2=Nc3ccccc3S(=O)(=O)N2)c(O)c2ccccc2n1CCC1CC1` [1-(2-cyclopropylethyl)-3-(1,1-dioxo-1,4-dihydro-1-benzo[1,2,4]-thiadiazin-3-yl)-4-hydroxy-1H-quinolin-2-one], which EC50 is on record?
Answer: The EC50 was 152 nM.

Question: Which EC50 does the source give for `CCCCn1c(=O)c(C2=NS(=O)(=O)c3ccccc3N2)c(O)c2ccccc21` [1-Butyl-3-(1,1-dioxo-1,4-dihydro-1lambda*6*-benzo[1,2,4]thiadiazin-3-yl)-4-hydroxy-1H-quinolin-2-one] here?
Answer: Its EC50 is 444 nM.

Question: Which EC50 does the source give for `O=c1c(C2=Nc3ccccc3S(=O)(=O)N2)c(O)c2ccccc2n1CC1CCC1` [1-cyclobutylmethyl-3-(1,1-dioxo-1,2-dihydrobenzo[1,2,4]thiadiazin-3-yl)-4-hydroxy-1-1H-quinolin-2-one] here?
Answer: Its EC50 is 241 nM.

Question: For `O=c1c(C2=Nc3ccccc3S(=O)(=O)N2)c(O)c2ccccc2n1-c1ccccc1` [3-(1,1-dioxo-1,2-dihydrobenzo[1,2,4]thiadiazin-3-yl)-4-hydroxy-1-phenyl-1Hquinolin-2-one], which EC50 is on record?
Answer: The EC50 was 774 nM.

Question: With `Cc1ccc2c(c1)c(O)c(C1=Nc3ccccc3S(=O)(=O)N1)c(=O)n2CCC(C)C` [3-(1,1-dioxo-1,2-dihydrobenzo[1,2,4]thiadiazin-3-yl)-4-hydroxy-6-methyl-1-(3-methylbutyl)-1H-quinolin-2-one] as the compound, how does the EC50 read?
Answer: The EC50 was 180 nM.

Question: With `CC(C)CCn1c(=O)c(C2=Nc3ccccc3S(=O)(=O)N2)c(O)c2c(F)cccc21` [3-(1,1-dioxo-1,2-dihydrobenzo[1,2,4]thiadiazin-3-yl)-5-fluoro-4-hydroxy-1-(3-methylbutyl)-1H-quinolin-2-one] as the compound, how does the EC50 read?
Answer: The EC50 was 381 nM.

Question: With `CC(C)CCn1c(=O)c(C2=Nc3ccccc3S(=O)(=O)N2)c(O)c2cc(F)ccc21` [3-(1,1-dioxo-1,4-dihydro-1lambda*6*-benzo[1,2,4]thiadiazin-3-yl)-6-fluoro-4-hydroxy-1-(3-methyl-butyl)-1H-quinolin-2-one] as the compound, how does the EC50 read?
Answer: Its EC50 is 261 nM.

Question: With `O=c1c(C2=Nc3ccccc3S(=O)(=O)N2)c(O)c2ccccc2n1Cc1ccoc1` [3-(1,1-dioxo-1,4-dihydrobenzo[1,2,4]thiadiazin-3-yl)-1-furan-3-ylmethyl-4-hydroxy-1H-quinolin-2-one] as the compound, how does the EC50 read?
Answer: Its EC50 is 389 nM.

Question: For `CC(C)CCn1c(=O)c(C2=Nc3ccccc3S(=O)(=O)N2)c(O)c2cc(OCC(N)=O)ccc21` [4-[3-(1,1-dioxo-1,4-dihydrobenzo[1,2,4]thiadiazin-3-yl)-4-hydroxy-1-(3-methylbutyl)-2-oxo-1,2-dihydroquinolin-6-yloxy]acetamide], which EC50 is on record?
Answer: The EC50 was 511 nM.

Question: For `CC(C)CCn1c(=O)c(C2=Nc3ccccc3S(=O)(=O)N2)c(O)c2cc(OCC#N)ccc21` [4-[3-(1,1-dioxo-1,4-dihydrobenzo[1,2,4]thiadiazin-3-yl)-4-hydroxy-1-(3-methylbutyl)-2-oxo-1,2-dihydroquinolin-6-yloxy]acetonitrile], which EC50 is on record?
Answer: The EC50 was 298 nM.

Question: With `Nc1ccc2c(c1)c(O)c(C1=Nc3ccccc3S(=O)(=O)N1)c(=O)n2CCC1CC1` [6-Amino-1-(2-cyclopropylethyl)-3-(1,1-dioxo-1,4-dihydrobenzo[1,2,4]thiadiazin-3-] as the compound, how does the EC50 read?
Answer: The EC50 was 157 nM.

Question: Which EC50 does the source give for `CC(C)CCn1c(=O)c(C2=Nc3ccccc3S(=O)(=O)N2)c(O)c2cc(N)ccc21` [6-amino-3-(1,1-dioxo-1,2-dihydrobenzo[1,2,4]thiadiazin-3-yl)-4-hydroxy-1-(3-methylbutyl)-1H-quinolin-2-one] here?
Answer: Its EC50 is 274 nM.

Question: With `CC(C)CCn1c(=O)c(C2=Nc3ccccc3S(=O)(=O)N2)c(O)c2cc(Cl)ccc21` [6-chloro-3-(1,1-dioxo-1,2-dihydrobenzo[1,2,4]thiadiazin-3-yl)-4-hydroxy-1-(3-methylbutyl)-1H-quinolin-2-one] as the compound, how does the EC50 read?
Answer: The EC50 was 1200 nM.

Question: For `CCOC(=O)CNc1ccc2c(c1)c(O)c(C1=Nc3ccccc3S(=O)(=O)N1)c(=O)n2CCC(C)C` [[3-(1,1-dioxo-1,4-dihydrobenzo[1,2,4]thiadiazin-3-yl)-4-hydroxy-1-(3-methylbutyl)-1H-dihydroquinolin-6-ylamino]acetic acid ethyl ester], which EC50 is on record?
Answer: Its EC50 is 265 nM.

Question: Which EC50 does the source give for `CC(C)CCn1c(=O)c(C2=Nc3ccccc3S(=O)(=O)N2)c(O)c2cc(NCC(=O)O)ccc21` [[3-(1,1-dioxo-1,4-dihydrobenzo[1,2,4]thiadiazin-3-yl)-4-hydroxy-1-(3-methylbutyl)-1H-dihydroquinolin-6-ylamino]acetic acid] here?
Answer: The EC50 was 2490 nM.
